Key:
Test in all cases: NADPH formation at […] nm, plate reader, Michaelis-Menten nonlinear fit
Type in all cases: biochemical
Conditions in all cases: 200 µM NADP+, 100 mM beta-mercaptoethanol, Tris/HCl pH 7.6, 30 °C; WT values said to accord with the authors' earlier paper [22]
[1] = target: T1, 10-formyl-THFDH (Amel_10-formyl-THFDH) (Apis mellifera, UniProt A0A7M7GVR6)
T1 construct: gene LOC551401; full-length ORF, N-terminal 6xHis tag (MHHHHHHAQLKVA...) not reported cleaved, baculovirus expression in Hi5 insect cells, Ni-NTA purified
T1 sequence (A0A7M7GVR6 entry or part of it): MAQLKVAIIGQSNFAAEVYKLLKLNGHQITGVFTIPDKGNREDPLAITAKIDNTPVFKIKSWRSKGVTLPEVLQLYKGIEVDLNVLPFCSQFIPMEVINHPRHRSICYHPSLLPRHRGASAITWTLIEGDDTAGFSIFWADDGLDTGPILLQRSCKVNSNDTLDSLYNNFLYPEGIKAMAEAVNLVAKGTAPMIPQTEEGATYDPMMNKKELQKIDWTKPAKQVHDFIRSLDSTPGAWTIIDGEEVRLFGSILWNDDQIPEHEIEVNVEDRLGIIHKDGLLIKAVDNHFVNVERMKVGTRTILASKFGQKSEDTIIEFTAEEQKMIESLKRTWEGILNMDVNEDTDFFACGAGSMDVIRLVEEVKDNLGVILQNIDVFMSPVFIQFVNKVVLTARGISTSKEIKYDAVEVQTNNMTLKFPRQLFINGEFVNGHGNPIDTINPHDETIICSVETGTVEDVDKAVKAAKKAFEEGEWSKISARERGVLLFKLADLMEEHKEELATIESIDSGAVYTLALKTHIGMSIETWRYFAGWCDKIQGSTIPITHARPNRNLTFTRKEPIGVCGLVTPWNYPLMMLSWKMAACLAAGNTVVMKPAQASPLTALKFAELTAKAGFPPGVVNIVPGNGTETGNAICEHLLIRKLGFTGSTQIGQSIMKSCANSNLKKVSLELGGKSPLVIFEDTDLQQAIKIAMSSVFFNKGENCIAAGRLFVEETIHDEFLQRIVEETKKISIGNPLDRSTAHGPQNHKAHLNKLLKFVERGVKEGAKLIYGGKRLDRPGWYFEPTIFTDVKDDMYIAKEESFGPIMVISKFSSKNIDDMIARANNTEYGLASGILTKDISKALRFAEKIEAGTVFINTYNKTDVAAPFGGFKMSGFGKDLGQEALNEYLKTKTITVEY

[2] = target: T1, 10-formyl-THFDH (Amel_10-formyl-THFDH); remark: listed apart in the source
[3] = target: T1, 10-formyl-THFDH (Amel_10-formyl-THFDH); remark: listed apart in the source
[4] = target: T1, 10-formyl-THFDH (Amel_10-formyl-THFDH); remark: listed apart in the source

Nc1nc2c(c(=O)[nH]1)NC(CN(C=O)c1ccc(C(=O)N[C@@H](CCC(=O)O)C(=O)O)cc1)CN2 (stereo partly shown) [10-formyl-THF]
NADPH formation at 340 nm, plate reader, Michaelis-Menten nonlinear fit [1]: The mutations lost their activity almost entirely | NADPH formation at 340 nm, plate reader, Michaelis-Menten nonlinear fit [2]: The mutations lost their activity almost entirely | NADPH formation at 340 nm, plate reader, Michaelis-Menten nonlinear fit [3]: The mutations lost their activity almost entirely | Km [4]: 9.6 µM
